The target in test [1] is Cyclin-dependent kinase 4 (Homo sapiens, UniProt P11802). Kind of test: Inhibition of Cyclin-dependent kinase 4.
For test [2], the target named is Tyrosine-protein kinase Lck (Homo sapiens, UniProt P06239). The test is described as follows: Inhibition of p56 Lck tyrosine kinase.
Test [3] has as its target Epidermal growth factor receptor (Homo sapiens, UniProt P00533). The test is described as follows: Inhibition of Epidermal growth factor receptor.
In test [4] the target is Tyrosine-protein kinase JAK1 (Homo sapiens, UniProt P23458). The test is described as follows: Inhibition of Janus kinase 1.
Sequence of Tyrosine-protein kinase JAK1 (P23458 whole entry): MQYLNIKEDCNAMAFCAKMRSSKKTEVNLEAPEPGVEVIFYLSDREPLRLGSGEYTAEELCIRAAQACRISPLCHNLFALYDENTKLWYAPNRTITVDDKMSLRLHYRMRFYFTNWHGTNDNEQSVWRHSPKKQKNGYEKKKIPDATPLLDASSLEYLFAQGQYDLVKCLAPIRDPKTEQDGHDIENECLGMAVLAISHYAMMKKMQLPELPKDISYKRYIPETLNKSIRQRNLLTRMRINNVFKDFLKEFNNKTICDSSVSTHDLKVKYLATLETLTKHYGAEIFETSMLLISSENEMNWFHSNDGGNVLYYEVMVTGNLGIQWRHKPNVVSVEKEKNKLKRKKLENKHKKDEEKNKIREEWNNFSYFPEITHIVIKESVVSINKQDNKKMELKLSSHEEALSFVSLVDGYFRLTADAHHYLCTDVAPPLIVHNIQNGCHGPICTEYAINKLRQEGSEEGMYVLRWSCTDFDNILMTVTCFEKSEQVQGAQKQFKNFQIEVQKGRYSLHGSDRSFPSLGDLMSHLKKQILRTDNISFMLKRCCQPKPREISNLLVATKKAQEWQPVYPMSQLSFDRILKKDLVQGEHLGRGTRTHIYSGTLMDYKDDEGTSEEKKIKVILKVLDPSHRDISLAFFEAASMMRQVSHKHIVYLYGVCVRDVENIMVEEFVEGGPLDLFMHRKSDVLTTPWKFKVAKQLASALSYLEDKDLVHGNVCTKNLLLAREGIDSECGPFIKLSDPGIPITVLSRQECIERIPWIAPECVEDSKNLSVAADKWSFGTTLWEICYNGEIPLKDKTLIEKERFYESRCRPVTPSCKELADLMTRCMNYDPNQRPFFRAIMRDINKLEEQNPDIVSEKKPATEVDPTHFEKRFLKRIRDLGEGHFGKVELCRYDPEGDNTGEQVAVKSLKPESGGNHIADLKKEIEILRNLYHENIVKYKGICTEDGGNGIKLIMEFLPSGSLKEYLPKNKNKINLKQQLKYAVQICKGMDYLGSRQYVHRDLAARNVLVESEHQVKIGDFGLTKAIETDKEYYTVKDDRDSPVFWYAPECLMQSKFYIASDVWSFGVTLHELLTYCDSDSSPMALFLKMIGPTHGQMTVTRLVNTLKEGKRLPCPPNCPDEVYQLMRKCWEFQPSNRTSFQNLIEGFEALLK

The structures appear in SMILES notation.

Usually IC50 stands for the concentration needed to halve the response being measured.

Sequence of Cyclin-dependent kinase 4 (P11802 whole entry): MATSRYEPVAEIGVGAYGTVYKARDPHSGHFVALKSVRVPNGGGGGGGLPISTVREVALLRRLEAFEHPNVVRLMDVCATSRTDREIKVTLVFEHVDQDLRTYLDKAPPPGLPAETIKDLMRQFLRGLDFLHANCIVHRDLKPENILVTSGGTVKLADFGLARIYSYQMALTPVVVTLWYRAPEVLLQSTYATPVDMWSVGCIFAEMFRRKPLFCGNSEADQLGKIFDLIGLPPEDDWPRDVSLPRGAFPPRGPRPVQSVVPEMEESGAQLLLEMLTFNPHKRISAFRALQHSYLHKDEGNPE
Sequence of Epidermal growth factor receptor (P00533 whole entry): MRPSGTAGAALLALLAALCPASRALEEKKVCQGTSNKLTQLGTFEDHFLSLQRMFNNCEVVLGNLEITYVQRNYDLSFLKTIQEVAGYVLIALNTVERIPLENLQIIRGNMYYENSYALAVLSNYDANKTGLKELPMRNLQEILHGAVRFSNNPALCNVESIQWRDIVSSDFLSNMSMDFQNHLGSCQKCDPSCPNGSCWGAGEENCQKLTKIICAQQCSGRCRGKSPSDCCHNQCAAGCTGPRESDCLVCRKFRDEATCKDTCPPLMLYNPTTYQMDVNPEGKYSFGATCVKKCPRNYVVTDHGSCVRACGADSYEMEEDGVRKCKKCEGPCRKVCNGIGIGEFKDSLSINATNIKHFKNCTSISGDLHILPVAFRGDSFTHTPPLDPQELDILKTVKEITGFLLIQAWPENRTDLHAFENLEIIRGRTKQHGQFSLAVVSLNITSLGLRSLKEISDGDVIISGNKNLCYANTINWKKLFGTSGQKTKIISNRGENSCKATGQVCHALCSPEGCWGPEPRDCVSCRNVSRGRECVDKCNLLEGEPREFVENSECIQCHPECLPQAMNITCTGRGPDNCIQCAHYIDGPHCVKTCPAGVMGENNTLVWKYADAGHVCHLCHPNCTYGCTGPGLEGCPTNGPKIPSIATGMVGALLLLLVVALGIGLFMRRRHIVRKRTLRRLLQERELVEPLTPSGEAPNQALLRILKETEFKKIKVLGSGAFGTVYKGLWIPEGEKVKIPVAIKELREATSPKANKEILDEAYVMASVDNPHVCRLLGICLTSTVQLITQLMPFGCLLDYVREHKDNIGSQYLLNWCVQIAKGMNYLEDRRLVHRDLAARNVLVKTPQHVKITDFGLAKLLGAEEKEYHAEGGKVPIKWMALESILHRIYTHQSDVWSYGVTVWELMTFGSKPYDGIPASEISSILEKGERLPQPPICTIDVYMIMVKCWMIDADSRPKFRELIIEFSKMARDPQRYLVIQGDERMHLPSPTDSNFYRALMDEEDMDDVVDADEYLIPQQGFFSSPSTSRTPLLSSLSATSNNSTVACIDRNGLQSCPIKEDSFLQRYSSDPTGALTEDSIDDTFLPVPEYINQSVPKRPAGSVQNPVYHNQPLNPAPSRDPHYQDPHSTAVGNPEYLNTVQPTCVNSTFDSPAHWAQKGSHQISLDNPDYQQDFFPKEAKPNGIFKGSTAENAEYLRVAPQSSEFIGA
Sequence of Tyrosine-protein kinase Lck (P06239 whole entry): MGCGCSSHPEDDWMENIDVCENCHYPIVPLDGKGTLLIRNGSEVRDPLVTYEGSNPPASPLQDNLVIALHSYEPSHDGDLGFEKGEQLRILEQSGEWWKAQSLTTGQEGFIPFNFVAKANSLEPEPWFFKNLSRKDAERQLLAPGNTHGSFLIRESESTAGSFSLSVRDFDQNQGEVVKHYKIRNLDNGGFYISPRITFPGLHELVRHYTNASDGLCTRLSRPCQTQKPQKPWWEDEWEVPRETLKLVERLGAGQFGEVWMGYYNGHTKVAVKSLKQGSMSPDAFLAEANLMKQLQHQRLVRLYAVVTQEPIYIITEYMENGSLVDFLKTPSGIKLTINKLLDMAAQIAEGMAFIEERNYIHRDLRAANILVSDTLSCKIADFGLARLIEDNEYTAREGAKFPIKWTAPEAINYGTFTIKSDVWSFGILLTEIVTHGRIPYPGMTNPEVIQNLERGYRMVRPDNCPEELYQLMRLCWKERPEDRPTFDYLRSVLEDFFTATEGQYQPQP

As to `CC(C)N(CCC(=O)c1ccc2ccccc2c1)Cc1ccccc1`, the IC50 in test [1] was over 10 µM; in test [2] it was over 10 µM; in test [3] it was 2.51 µM; in test [4], 39.8 µM.

For the molecule `C=CC(=O)c1ccc2ccccc2c1`, the IC50 in test [1] was over 10 µM; in test [2], over 10 µM; in test [3] it was 10 µM; in test [4], 20 µM.

Source of the values: ChEMBL document CHEMBL1133428, “Naphthyl ketones: a new class of Janus kinase 3 inhibitors” (Bioorg Med Chem Lett, 2000).
